From ChEMBL document CHEMBL3507680, “University of Dundee, Gates Library screen for HepG2 cell viability”

Test: Human HepG2 cell viability assay in 384 well format
Format: toxicity, cell-based
Parameters: dose 125 nL, time 70.5 hour; cytotoxicity at 70.5 h: concentration not given beside the values
Details: HepG2 cells, read-out: Inhibition

Compared with `N#Cc1ccc(CN2CC3(CCCCN3c3cccnc3)CC2=O)cc1` (configuration not stated), `N#Cc1cc(F)ccc1NCc1ccc(Cn2cncn2)cc1` is lower in cytotoxicity at 70.5 h: 1% for the first, -3.41% for the second.

Going from `CC1(C)CC(CN2CCC3(CCC(=O)N(CCO)C3)CC2)CCO1` (configuration not stated) to `CC(=O)c1ccc(N2CCC3(CCC(=O)N(CCCO)C3)CC2)nc1`, the cytotoxicity at 70.5 h rises from -10.6% to 3.25%.

Compared with `O=C1[C@H]2CN(Cc3ccoc3)C[C@H]2CN1CCN1CCCC1`, `Cc1cnccc1N1CCN(C(=O)CCCN2CCCCC2)CC1` is higher in cytotoxicity at 70.5 h: -12.5% for the first, -3.26% for the second.

First: Cc1cc(C)n(CC2CCCN2CCS(=O)(=O)c2ccccc2)n1 (configuration not stated)
Second: NC(=O)CS(=O)(=O)Cc1csc(-c2ccccc2)n1
The cytotoxicity at 70.5 h of the first is lower: -24.2% for the first, -4.61% for the second.

First: Cc1nc(C(C)(C)NCc2nnc(C(C)C)o2)sc1C
Second: Cc1cc(NC(C)c2csc(C)n2)n2nc(C)c(C)c2n1 (configuration not stated)
The cytotoxicity at 70.5 h of the first is lower: 1.69% for the first, 5.97% for the second.

Compared with `CC(C)COC1CCN(S(=O)(=O)Cc2cccc(F)c2)CC1`, `CCOc1cccc(C(C)NC(=O)N2CCC(C(N)=O)CC2)c1` (configuration not stated) is higher in cytotoxicity at 70.5 h: -14.2% for the first, -8.18% for the second.

Compared with `Cc1cccc(OCC(O)CNCc2c(C)nn(C)c2N(C)C)c1` (configuration not stated), `Cc1nn(C)c(N2CCOCC2)c1CNC1COc2ccccc2C1` (configuration not stated) is higher in cytotoxicity at 70.5 h: -8.26% for the first, 27.5% for the second.

Compared with `Cc1ccc(C2CCCN2Cc2nc(-c3ccco3)no2)cc1` (configuration not stated), `Cc1cnccc1NCCNC(=O)C1CCCN(Cc2ccco2)C1` (configuration not stated) is higher in cytotoxicity at 70.5 h: -1.81% for the first, 9.92% for the second.

First: Cc1nn(C)cc1CN(C)C(=O)c1ccncc1
Second: CN(CCc1ccncc1)Cc1nccn1Cc1ccccc1
The cytotoxicity at 70.5 h of the first is lower: 2.69% for the first, 8.96% for the second.

Going from `Cc1noc(C)c1CN1CCC2(CC1)C(c1ccccc1)CC(=O)N2C` (configuration not stated) to `Cc1nc(C)c2c(n1)CCN(Cc1nccn1C)CC2`, the cytotoxicity at 70.5 h falls from -1.86% to -8.56%.

Compared with `O=C(c1cnn2cc(CCO)cnc12)N1CCOC(C(F)(F)F)C1` (configuration not stated), `CNc1ccc(CC2CCCN(C(=O)c3cnco3)C2)nn1` (configuration not stated) is higher in cytotoxicity at 70.5 h: -13% for the first, -9.21% for the second.

Compared with `Cc1cccc(CC(=O)N2CCCC(c3n[nH]c4nccnc34)C2)c1` (configuration not stated), `O=C(c1cnnn1-c1ccccc1)N1CCCC(c2ccn[nH]2)C1` (configuration not stated) is higher in cytotoxicity at 70.5 h: 14.6% for the first, 48.8% for the second.

Compared with `CC(C)c1ccc(-n2ncc(C(=O)NCC3COC(C)(C)O3)c2N)cc1` (configuration not stated), `Cc1ccc(CNC(=O)c2c[nH]nc2NC(=O)C2CCC2)cc1` is lower in cytotoxicity at 70.5 h: 26.2% for the first, -7.26% for the second.

Compared with `CN(Cc1nnc2n1CCC2)C(=O)NCCc1ccc2c(c1)OCO2`, `O=C(NCCc1ccccc1)N1CCC(C2OCCO2)CC1` is higher in cytotoxicity at 70.5 h: -11.6% for the first, -4.29% for the second.

Going from `CN(Cc1ccoc1)c1ccc(-c2nccn2C)nn1` to `Cc1nnc(CSc2n[nH]c(-c3ccccn3)n2)o1`, the cytotoxicity at 70.5 h falls from 26.2% to -7.45%.

Compared with `Cc1cc(CC(=O)N2CCN(CC3CC3)[C@@H]3CS(=O)(=O)C[C@@H]32)ccc1F`, `CCc1ccc(C(=O)N2CCC(c3nncn3CC)CC2)cc1` is higher in cytotoxicity at 70.5 h: 4.69% for the first, 33.4% for the second.

First: Cc1nc(C)n(CC2CCCN(CC(=O)Nc3cccnc3)C2)n1 (configuration not stated)
Second: Cc1noc2nc(C3CCCN(Cc4ccncc4)C3)cc(C(F)F)c12 (configuration not stated)
The cytotoxicity at 70.5 h of the first is higher: -0.663% for the first, -3.5% for the second.

Compared with `CN(C)C(=O)Cc1ccc(NC(=O)NC2CC2)cc1`, `CC(=O)Nc1ccc(OCc2noc(C(=O)N3CCCCCC3)n2)cc1` is lower in cytotoxicity at 70.5 h: -3.59% for the first, -21.4% for the second.

Going from `CN(CC(=O)N1CCCC1)C(=O)Cc1csc(-c2ncccn2)n1` to `Cc1cc(-c2nccs2)nc(C2CCN(Cc3ccccn3)CC2)n1`, the cytotoxicity at 70.5 h falls from -1.25% to -3.72%.

Compared with `COc1ccc(CNc2c(N3CCN(C)CC3)c(=O)c2=O)cc1`, `COc1cnc(N2CCC(c3ncc[nH]3)CC2)nc1` is higher in cytotoxicity at 70.5 h: -8.39% for the first, 17.8% for the second.

Compared with `CCNC(=O)[C@@H]1C[C@H](n2cc(CC3CCCCC3)nn2)CN1`, `O=C1NC2(Cc3ccccc31)CN(CC1CCCC1)C2` is lower in cytotoxicity at 70.5 h: -7.89% for the first, -11.8% for the second.

First: Cc1nc2c(c(NC(C)C)n1)CCN(C1CCOCC1)CC2
Second: Cc1nsc(NC(=O)NC2(CN3CCOCC3)CCCC2)n1
The cytotoxicity at 70.5 h of the first is higher: 2.46% for the first, -8.03% for the second.

First: CCCNC(=O)c1sc(Nc2ccc(Cl)cn2)nc1C
Second: CCn1cc(CNc2ccc(F)c(F)c2)cn1
The cytotoxicity at 70.5 h of the first is lower: -5% for the first, 8.3% for the second.

Compared with `Cc1ccccc1CN1C[C@@H](CN(C)CCO)[C@@H](CO)C1`, `CCN(Cc1nc2c(cnn2C)c(=O)[nH]1)c1ccccc1C` is higher in cytotoxicity at 70.5 h: -11.6% for the first, -11.2% for the second.

First: CCC(C)C(=O)NCc1cc(Br)c(OC)c(OC)c1 (configuration not stated)
Second: CC(C)OCCSCc1nnc(-c2cccc(F)c2)o1
The cytotoxicity at 70.5 h of the first is lower: -6.76% for the first, -5.57% for the second.

First: CO[C@H]1CC[C@H]2[C@H]1OCCN2C(=O)C1=CCCC1
Second: O=C(C1CC=CC1)N1CCC2(CC1)CNCCO2
The cytotoxicity at 70.5 h of the first is higher: 9.7% for the first, -5.99% for the second.

Going from `CC(C)n1cc(CN2CCCN(C(=O)C3(C)CCOCC3)CC2)cn1` to `O=C(NCCN1CCCCC1)C(c1ccccc1)N1CCCC1` (configuration not stated), the cytotoxicity at 70.5 h rises from -11.5% to 2.81%.

Going from `Cn1ncc2c1C(COCC1CC1)CN(CC1CC1)C2` (configuration not stated) to `COc1ncccc1CN1Cc2nccn2CC(Cn2cccn2)C1` (configuration not stated), the cytotoxicity at 70.5 h rises from -6.33% to -5.37%.

Work on `CCOc1ncccc1Cn1cc(-c2cncnc2)nn1` yielded a cytotoxicity at 70.5 h of -15.8%.
